{
  "source": "patent US5981529A",
  "about": "“Substituted indolylpropyl-piperazine derivatives as 5-HT1D α agonists” (Merck Sharp & Dohme Limited, priority 1995, dated 1999)",
  "origin": "cited, not measured here",
  "key": {"[1]": {"system": "human 5-HT1Dα and 5-HT1Dβ receptor subtypes", "details": "cf. WO-A-91/17174, Table 1"}, "[2]": {"details": "therapeutic doses"}},
  "data": [
    {"smiles": "CNS(=O)(=O)Cc1ccc2[nH]cc(CCN(C)C)c2c1", "note": "[sumatriptan]", "values": [
      {"measurement": "discrimination between the human 5-HT1Dα and 5-HT1Dβ receptor subtypes", "setting": "[1]", "result": "barely discriminates between the human 5-HT1Dα and 5-HT1Dβ receptor subtypes"},
      {"measurement": "adverse events on administration to humans", "setting": "[2]", "result": "certain adverse cardiovascular events"}
    ]}
  ]
}
